Values of other authors in US20260198548A1, “AEROSOL-GENERATING ARTICLE WITH AN AVERSIVE FLAVOURANT IN A REMOVABLE WRAPPER” (PHILIP MORRIS PRODUCTS S.A., priority 2022, published 2026).
Where a name gives a salt, the structure may show the parent alone.

Tested on: test panel members (bitter taste)
Conditions: reciprocal of the dilution that still has a bitter taste; quinine hydrochloride reference set at 200,000

## amarogentin
  Bitterness value: 58,000,000

## COC1=C[C@@H](C)[C@@H]2C[C@H]3OC(=O)C[C@H]4C(C)=C(OC)C(=O)[C@H]([C@@]2(C)C1=O)[C@@]34C [Quassin, quassin]
  Bitterness value: 13,000,000

## C=C[C@H]1C[N@@]2CC[C@H]1C[C@H]2[C@H](O)c1ccnc2ccc(OC)cc12 [Quinine hydrochloride, quinine hydrochloride]
  Bitterness value: 200,000

## CC1=C[C@H]2[C@H]3[C@H](C(C)=C4[C@H]5OC(=O)[C@@H](C)[C@@H]5CC[C@](C)(O)[C@@H]43)[C@@]13[C@@H]2[C@@](C)(O)CC[C@H]1[C@H](C)C(=O)O[C@@H]13 [Absinthin, absinthin]
  Bitterness value: 3,000,000

## C[C@@]12C[C@@H](c3ccoc3)OC(=O)[C@@H]1CC[C@]1(C)[C@H]2[C@@H]2C=C[C@@]1(O)C(=O)O2 [Columbin, columbin]
  Bitterness value: 60,000,000
